Data: paper PMC7919472, “Insulin–Mimetic Dihydroxanthyletin-Type Coumarins from Angelica decursiva with Protein Tyrosine Phosphatase 1B and α-Glucosidase Inhibitory Activities and Docking Studies of Their Molecular Mechanisms” (Antioxidants, 2021)

Tests used:
[1] = biological target: T1, PTP1B (human recombinant) (Homo sapiens, UniProt P18031); experiment: PTP1B inhibitory assay with pNPP substrate, with Dixon and Lineweaver-Burk kinetics; type: biochemical; details: for Protein Tyrosine Phosphatase 1B Inhibition Type: determined by Dixon and Lineweaver-Burk plots; for Ki: determined by the Dixon plot, read-out: Protein Tyrosine Phosphatase 1B Ki Value; for IC50: pNPP substrate, mean ± SEM of triplicate, read-out: Protein Tyrosine Phosphatase 1B IC50
T1 construct: purchased Biomol International LP (Plymouth Meeting, Pennsylvania, USA)
T1 sequence (P18031 1-435): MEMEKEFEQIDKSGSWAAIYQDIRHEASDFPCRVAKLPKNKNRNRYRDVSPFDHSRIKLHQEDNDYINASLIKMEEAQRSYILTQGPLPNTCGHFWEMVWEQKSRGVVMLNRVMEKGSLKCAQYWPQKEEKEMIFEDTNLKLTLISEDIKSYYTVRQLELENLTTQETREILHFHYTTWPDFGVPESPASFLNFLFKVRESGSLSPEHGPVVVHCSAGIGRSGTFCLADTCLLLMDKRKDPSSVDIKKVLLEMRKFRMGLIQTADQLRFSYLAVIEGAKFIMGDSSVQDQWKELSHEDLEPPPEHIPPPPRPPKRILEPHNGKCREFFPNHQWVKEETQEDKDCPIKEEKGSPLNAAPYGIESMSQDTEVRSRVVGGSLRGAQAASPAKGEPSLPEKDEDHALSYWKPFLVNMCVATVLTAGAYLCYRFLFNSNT
Protocol: The inhibitory activity of PTP1B has been tested using pNPP previously reported in our paper. The amount of p-nitrophenyl produced after enzymatic dephosphorylation of pNPP was calculated using a microplate spectrophotometer (Molecular Devices) to calculate absorbance at 405 nm.
(§1) Two kinetic methods using Lineweaver-Burk and Dixon plots have been complemented for the determination of the kinetic process. PTP1B inhibition mode was calculated at different pNPP substrate concentration (0.5, 1.0, and 2.0 mM) in the absence or presence of different coumarins test concentrations (0, 0.8, 4.0, and 20.0 µM for (+)-trans-decursidinol; 0, 2.0, 10.0, and 50 µM for Pd-C-I and Pd-C-II; 0, 4.0, 20.0, and 100 µM for Pd-C-III) using Lineweaver-Burk and Dixon plots. By monitoring the effects of different concentrations of the substrates in the Dixon plots (single reciprocal plot), each enzymatic inhibition of test coumarins was assessed. Additionally, in the presence of different concentrations of substrate: 2.5, 1.25, and 0.625 mM pNPG, the Lineweaver-Burk and Dixon plots for α-glucosidase inhibition of coumarins were also performed. The test concentrations of the coumarins in the α-glucosidase kinetic analysis were as follows 0, 7.81, 15.62, 31.25, and 62.5 µM for (+)-trans-decursidinol, Pd-C-I, and Pd-C-II; 0, 15.62, 31.25, 62.5, and 125 µM for Pd-C-III. The PTP1B and α-glucosidase assay methods were the same for both enzymatic procedures. The inhibition constants (Ki) were calculated by interpretation of the Dixon plots, where the value of the x-axis means -Ki.

yeast α-glucosidase = yeast α-glucosidase (Saccharomyces cerevisiae, UniProt P53341); experiment: α-Glucosidase inhibitory assay with pNPG substrate, with Dixon and Lineweaver-Burk kinetics; type: biochemical; details: determined by Dixon and Lineweaver-Burk plots
Chain of yeast α-glucosidase (P53341 whole entry): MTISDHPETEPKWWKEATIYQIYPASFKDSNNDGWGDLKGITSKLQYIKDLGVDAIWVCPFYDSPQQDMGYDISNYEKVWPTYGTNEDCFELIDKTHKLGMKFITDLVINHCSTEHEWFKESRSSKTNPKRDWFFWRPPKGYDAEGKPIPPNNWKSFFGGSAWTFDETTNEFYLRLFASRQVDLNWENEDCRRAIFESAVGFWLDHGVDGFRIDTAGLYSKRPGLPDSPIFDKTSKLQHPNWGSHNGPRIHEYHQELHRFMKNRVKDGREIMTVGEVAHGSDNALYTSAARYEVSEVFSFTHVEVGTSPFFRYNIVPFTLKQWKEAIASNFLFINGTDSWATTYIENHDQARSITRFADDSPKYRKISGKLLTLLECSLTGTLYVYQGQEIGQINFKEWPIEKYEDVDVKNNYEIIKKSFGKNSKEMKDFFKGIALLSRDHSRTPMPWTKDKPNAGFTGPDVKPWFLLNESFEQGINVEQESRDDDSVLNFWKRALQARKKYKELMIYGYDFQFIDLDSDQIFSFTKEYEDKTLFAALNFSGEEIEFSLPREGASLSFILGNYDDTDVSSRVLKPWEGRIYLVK
Protocol: The enzyme inhibition analysis was carried out using the technique previously reported in our paper. The absorbance was recorded at 405 nm immediately afterward using the microplate spectrophotometer (Molecular Devices, Sunnyvale, CA, USA).
as §1

[2] = test system: t-BHP-treated HepG2 cells; experiment: Intracellular ROS level in t-BHP-treated HepG2 cells (DCFH-DA); type: cell-based, human; details: 200 μM t-BHP; for ROS generation: 10–40 μM
Protocol: A fluorometric assay was used to measure the intracellular ROS level in HepG2 cells applying the oxidant-sensitive fluorescence probe 2, DCFH-DA [47]. In order to determine the extent of intracellular ROS scavenging activity, HepG2 cells were seeded into black 96-well plates at a density of 2.0 × 10^5 cells/well and incubated with coumarins at a concentrations range of 2.5–40 µM for 1 h. To induce ROS production, cells were subsequently exposed to 200 µM tert-butyl hydroperoxide (t-BHP) for 30 min and were then incubated for 30 min with DCFH-DA (20 μM). At an excitation wavelength of 485 nm and an emission wavelength of 530 nm, the resulting fluorescence intensities were measured using a fluorescence microplate reader (FL × 800; Bio-Tek Instruments Inc., Winooski, UT, USA).

[3] = Inhibition of ONOO−-mediated albumin (protein tyrosine) nitration, Western blot; type: biochemical
Protocol: ONOO^−-mediated protein tyrosine nitration was evaluated with minor modifications by using in our previously reported method.

[4] = test system: PTP1B expression in insulin-resistant HepG2 cells; experiment: PTP1B expression level by Western blot; type: cell-based, human
Protocol: (§2) With minor modifications, the insulin resistant HepG2 cell model was developed according to the previous method. In short, in 96-well plats (2 × 10^5 cells/well), HepG2 cells were cultured. When they reached a confluence, 10^−6 M insulin was treated for 24 h on serum-free MEM to induce insulin resistance, then the cells were incubated for 30 min with 100 nM insulin and harvested for assays as described below.
Insulin-resistant HepG2 cells (5 × 10^5 cells/well) were treated for 24 h in 6-well plates with different concentrations of coumarins. The cells were washed with ice-cold PBS three times, collected, then lysed with a sample buffer [50 mM (4-(2-hydroxyethyl)-1-piperazineethanessulfonic acid) pH 7.5, 150 mM NaCl, 2.5 mM EDTA, 0.5% NP-40, 1 mM PMSF, 1 mM DTT, 0.2% aprotinin, 0.5% leupeptin, 20 mM NaF, and 1 mM Na3VO4] on ice after stimulation with 100 nM insulin at 37 °C for 30 min. Insoluble materials were extracted by centrifugation for 20 min at 25,000 × g after incubation for 30 min. An updated Bradford protein assay kit calculated the protein concentrations. Total protein (40 μg) was electrophoresed into a polyvinylidene difluoride (PVDF) membrane by use of a dodecyl sulfate-polyacrylamide gel electrophoresis (SDS-PAGE). In a blocking buffer, membranes were blocked (5% skim milk in Tris-buffered saline containing 0.1% Tween 20 (TBST) and incubated overnight at 4 °C with primary antibodies, followed by incubation at room temperature for 4 h with suitable secondary antibodies. Three times for 30 min with TBST, the membranes were washed. The Supersignal West Pico chemiluminescence substrate (Pierce, Rockford, IL, USA) has been used to visualize the protein bands and pictured on X-ray film (Kodak, Rochester, NY, USA) according to the manufacturer’s instructions. Using CS analyzer software (Atto Corp., Tokyo, Japan), bands were scanned and quantitated and the control was set to 1. As the internal control, β-actin was used. For determining the molecular weights of protein bands, prestained blue protein markers were used. Comparisons were made between mean band densities in same gels. Autoradiography visualized protein bands and measured the intensities using Quantity One software (Bio-Rad Laboratories, Hercules, CA, USA).

[5] = test system: insulin-resistant HepG2 cells; experiment: 2-NBDG glucose uptake assay; type: cell-based, human; details: 24 h, insulin-stimulated 2-NBDG uptake
Protocol: as §2
In accordance with a previous method the glucose uptake assay was established with some modifications. Briefly, HepG2 cells were cultured in 96-well plate to confluence and then treated with 10^−6 M insulin for 24 h to induce insulin resistance (based on a 49% decrease in glucose uptake) (data not shown). Different coumarins (5–40 µM) or 10 µM metformin (non-cytotoxic concentration) concentrations were added and incubated for 24 h, followed by 100 nM insulin and cells incubation for 30 min, respectively. 2-NBDG uptake was measured following this incubation. The cells were incubated with 40 μM of 2-NBDG (dissolved in PBS with 1% BSA) for 20 min. The cells were washed thrice with ice-cold PBS to avoid the reaction, and the fluorescence intensity of 2-NBDG was calculated at 485 nm of excitation and 528 nm of emission on a microplate reader (Bio-Tek Instruments Inc., Winooski, VT, USA). Five replication wells have been set up, and three times each experiment has been replicated.

[6] = ONOO− scavenging activity (DHR 123); type: biochemical; details: mean ± SEM of triplicate
Protocol: ONOO^− scavenging activity was measured using a slight modification of the method reported by Kooy’s that monitors output of fluorescent rhodamine 123 from non-fluorescent DHR 123 in the presence of ONOO^−. The rhodamine buffer (pH 7.4) consisted of 90 mM sodium chloride, 50 mM sodium phosphate dibasic, 5 mM potassium chloride, 100 µM diethylenetriaminepentaacetic acid and 50 mM sodium phosphate monobasic. DHR 123 final concentration was 5 µM. The buffer used in this assay was prepared and put on ice before use. In 10% DMSO, the samples were dissolved and authentic ONOO^− (10 µM) dissolved in 0.3 N sodium hydroxide was added. Background and final fluorescent intensities were measured after 5 min. The fluorescence intensity of the oxidized DHR 123 was measured with a microplate fluorescence reader (Bio-Tek Instruments, Inc., FLx 800, Winooski, UT, USA) on the excitation and emission wavelengths of 480 and 530 nm, respectively. As a standard control, L-penicillamine was used.

[7] = Total ROS generation inhibitory activity (rat kidney homogenate, DCFH-DA); type: biochemical; details: mean ± SEM of triplicate
Protocol: The generation of ROS was calculated using the ROS-sensitive fluorescence indicator (DCFH-DA) of 7-dichlorofluorescein diacetate. In a 50 mM potassium phosphate buffer, rat kidney homogenates (Tissue bank from Pusan National University, Busan, S. Korea) were prepared from the kidneys of newly killed male Wistar rats weighing between 150–200 g and 10 μg of each test sample was applied to 190 μL of kidney post mitochondrial fraction. The mixture was loaded in a potassium phosphate buffer with 50 μL of DCFH-DA (12.5 mM) and shaken for 5 min. On a microplate fluorescence spectrophotometer FLX 800 (Bio-Tek Instruments Inc., Winooski, UT, USA), the fluorescence of 2′,7′-dichlorofluorescein (DCF), the oxidation product from DCFH-DA, was measured at an excitation wavelength of 485 nm and an emission wavelength of 530 nm for 30 min. As a positive control, Trolox, was used.

[8] = Homo sapiens, HepG2, pretreated 1 h, read-out: ROS production, inhibition

Row | SMILES | Protein Tyrosine Phosphatase 1B Inhibition Type [1] | Ki [1] | IC50 [1] | fold more active than decursinol ([1]; versus decursinol of the earlier work, enzyme not named in the sentence (PTP1B and α-glucosidase discussed)) | α-Glucosidase Inhibition Type (yeast α-glucosidase) | IC50 [6] | IC50 [7] | inhibition at 5 µM ([2]; Homo sapiens, HepG2, 5 μM, pretreated 1 h, read-out: ROS production, inhibition) | inhibition at 10 µM [2, 8] | inhibition at 15 µM ([2]; Homo sapiens, HepG2, 15 μM, pretreated 1 h, read-out: ROS production, inhibition) | ONOO−-mediated albumin nitration ([3]; pretreatment at 5–40 µM) | PTP1B expression ([4]; at 10 and 15 µM, 24 h) | relative glucose uptake percentage ([5]; 15 µM) | ROS generation [2] | ONOO−-mediated albumin nitration ([3]; pretreatment at 12.5–100 µM) | PTP1B expression ([4]; concentration not given) | relative glucose uptake percentage ([5]; 40 µM) | PTP1B expression ([4]; at 20 and 40 µM, 24 h) | relative glucose uptake percentage ([5]; 10 µM)
1 | CC1(C)Oc2cc3oc(=O)ccc3cc2[C@@H](O)[C@@H]1O [(+)-trans-decursidinol] | Competitive | 2.84 µM | 2.33 ± 0.07 µM | 25 times | Competitive | 4.57 ± 0.21 µM | 9.77 ± 0.32 µM | 75.5% | 57.5% | 43.4% | significantly inhibited in a concentration-dependent manner | diminished PTP1B’s expression | 125% |  |  |  |  |  | 
2 | CC(C)(S)[C@H](N)C(=O)O [L-Penicillamine, L-penicillamine, reference compound] |  |  |  |  |  | 1.86 ± 0.11 µM |  |  |  |  |  |  |  |  |  |  |  |  | 
3 | C/C=C\C(=O)O[C@H]1[C@H](OC(C)=O)c2cc3ccc(=O)oc3cc2OC1(C)C [Pd-C-III] | Mixed | 16 µM | 12 ± 0.43 µM |  | Noncompetitive | 1.44 ± 0.22 µM | 9.69 ± 0.21 µM |  |  |  |  |  |  | significantly inhibited ROS generation | pronounced dose-dependent inhibition | significantly downregulated PTP1B’s expression | 117% |  | 
4 | CC(C)=CC(=O)O[C@@H]1c2cc3ccc(=O)oc3cc2OC(C)(C)[C@H]1O [Pd-C-II] | Competitive | 9.72 µM | 6.17 ± 0.31 µM |  | Mixed | 3.77 ± 0.15 µM | 10.8 ± 0.73 µM |  |  |  |  |  |  | significantly inhibited ROS generation | pronounced dose-dependent inhibition |  | 120% | downregulated PTP1B’s expression | 
5 | CN(C)C(=N)N=C(N)N [metformin, reference compound] |  |  |  |  |  |  |  |  |  |  |  |  |  |  |  |  |  |  | 129%

Second part, led by results:

Row | Protein Tyrosine Phosphatase 1B Inhibition Type [1] | Ki [1] | IC50 [1] | fold more active than decursinol ([1]; versus decursinol of the earlier work, enzyme not named in the sentence (PTP1B and α-glucosidase discussed)) | α-Glucosidase Inhibition Type (yeast α-glucosidase) | IC50 [6] | IC50 [7] | SMILES | inhibition at 5 µM ([2]; Homo sapiens, HepG2, 5 μM, pretreated 1 h, read-out: ROS production, inhibition) | inhibition at 10 µM [2, 8] | inhibition at 15 µM ([2]; Homo sapiens, HepG2, 15 μM, pretreated 1 h, read-out: ROS production, inhibition) | ONOO−-mediated albumin nitration ([3]; pretreatment at 5–40 µM) | PTP1B expression ([4]; at 10 and 15 µM, 24 h) | relative glucose uptake percentage ([5]; 15 µM) | ROS generation [2] | ONOO−-mediated albumin nitration ([3]; pretreatment at 12.5–100 µM) | PTP1B expression ([4]; concentration not given) | relative glucose uptake percentage ([5]; 40 µM) | PTP1B expression ([4]; at 20 and 40 µM, 24 h) | relative glucose uptake percentage ([5]; 10 µM)
6 | Competitive | 6.21 µM | 4.32 ± 0.12 µM |  | Mixed | 1.82 ± 0.44 µM | 6.32 ± 0.41 µM | CC(C)=CC(=O)O[C@H]1[C@H](O)c2cc3ccc(=O)oc3cc2OC1(C)C [Pd-C-I] |  |  |  |  |  |  | significantly inhibited ROS generation | pronounced dose-dependent inhibition |  | 128% | downregulated PTP1B’s expression | 
7 |  |  |  |  |  |  | 3.29 ± 0.26 µM | Cc1c(C)c2c(c(C)c1O)CCC(C)(C(=O)O)O2 (centres unmarked) [Trolox, trolox, reference compound] |  | ~49% |  |  |  |  |  |  |  |  |  | 
